According to US20220220565A1, “METHODS AND COMPOSITIONS FOR TREATING MELANOMA” (INSERM (INSTITUT NATIONAL DE LA SANTÉ ET DE LA RECHERCHE …, priority 2019, published 2022):
Entries after “also recorded” stand apart in the source; their conditions may differ.

Assays:
[1] = tested on: EMT factors TWIST1 and SNAIL; test: EMT factor expression (immunoblot); assay type: cell-based, human; settings: IKK targeting in melanoma cells
Description: (§1) Immunohistochemistry and immunoblot analysis were performed as described before. IHC analysis was performed on melanoma tissue microarrays (US Biomax, MD, USA) using PTX3 antibody (HPA069320, Sigma-Aldrich; 1:50). For immunoblotting, the following antibodies were used at 1:1,000: SPARC (Bio-Techne), PTX3 (Enzo Life Sciences, Switzerland), HSP90, HSP60, TLR4, Fibronectin, ERK2 (Santa Cruz Biotechnology), MITF (Thermo Fisher Scientific), TWIST1 (Abcam, UK), SNAIL, phospho-IKKα/β (Ser176/180), NF-κB p65, phospho-NF-κB p65 (Ser536), I[…]B[…] (L35A5), I[…]B[…] (Ser32/36), IKKα, IKKβ, MYD88, phospho-AKT (Ser473), phospho-ERK1/2 (Thr202/Tyr204) (Cell Signaling Technology, MA, USA).

[2] = tested on: PTX3-expressing 501Mel cells; test: PTX3-mediated cell migration; assay type: cell-based, human; settings: data not shown
Description: (§2) Serum-stimulated chemotaxis, invasion and transendothelial migration were monitored using modified Boyden chambers (8 μm pores, Sigma) as described before. For invasion assays, the upper side of the filter was coated with 0.5 mg.ml-1 matrigel (Corning, N.Y., USA). Migrated cells were stained with crystal violet and counted (four fields randomly per well). For transendothelial migration, 105 HUVECs were grown in the upper chamber of gelatin-coated

[3] = tested on: PTX3; test: PTX3 expression and secretion (immunoblot of lysates and CM); assay type: cell-based, human; settings: 1205Lu cells treated with IKK inhibitor
Description: as §1

[4] = tested on: melanoma cells; test: Cell migration upon IKK targeting; assay type: cell-based, human; settings: IKK targeting in melanoma cells
Description: as §2

[5] = tested on: 501Mel control cells; test: Cell migration of control cells; assay type: cell-based, human; settings: IKK inhibition or TWIST1 depletion
Description: as §2

[6] = tested on: 1205Lu-Luc+ cells; test: Experimental lung metastasis (long-term lung colonization) by bioluminescent melanoma cells; assay type: in vivo, nude mice
Description: All mouse experiments were carried out in accordance with the Institutional Animal Care and local ethics committees. For experimental lung metastasis studies, 5-week-old female nude mice (Harlan, IN, USA) were intravenously injected with 1205Lu Luc+cells (1×106) that were transduced with a non targeting shRNA lentivirus (shCTRL) or a PTX3 targeting shRNA lentivirus (shPTX3-5). Images were acquired using a Photon Imager (Biospace Lab, France) on mice injected i.p with 50mg.kg-1 D-luciferin (PerkinElmer, MA, USA). Lung metastasis was monitored and quantified using BLI [12]. In a second set of experiments, short-term lung colonization assays were performed with Cell Tracker Orange-stained 501Mel cells stably expressing PTX3 or not. Cells were intravenously injected in 5-week-old female nude mice that were sacrificed either 30 min or 24 h later. Lungs were perfused with PBS, fixed in 4% paraformaldehyde, OCT-embedded, cryosectioned, immunostained and imaged using a confocal microscope as described.

[7] = tested on: 1205Lu-Luc+ cells; test: In vitro cell migration of shRNA-transduced cells (Boyden chamber); assay type: cell-based, human; settings: among shPTX3-1 to 5; data not shown
Description: Negative control, PTX3 siRNA duplexes were designed by Thermo Fisher Scientific. MITF (sc-35934), MYD88 (sc-35986) and TWIST1 (sc-38604) siRNAs were from Santa Cruz Biotechnology (TX, USA). IKKα, IKKβ, and TLR4 siRNAs were from Dharmacon (CO, USA). Transfection of siRNA was carried out using Lipofectamine RNAiMAX (Thermo Fisher Scientific), at a final concentration of 25 or 50 nM. Unless stated otherwise, cells were assayed 3 days post transfection. Lentiviral vectors for stable knockdown of PTX3 (NM_002852) in melanoma cells were TRC1.5-pLKO.1-puro vectors containing a s (shPTX3-1 to 5) (Genomic center, University of Minnesota, USA). Lentiviral, packaging (psPAX2) and enveloppe (pMD2.0G) vectors were transfected into HEK293T cells and virus-containing supernatant fractions were harvested after 72 h. The supernatant fractions were filtered and used to infect bioluminescent 1205Lu cells (1205Lu-Luc+) that were described before. Transduced cells were selected with 2 μg/ml puromycin for 3 weeks. The efficiency of PTX3 knockdown was assessed by immunoblotting and analysis of in vitro cell migration using modified Boyden chambers. […]
Serum-stimulated chemotaxis, invasion and transendothelial migration were monitored using modified Boyden chambers (8 μm pores, Sigma) as described before. […] Migrated cells were stained with crystal violet and counted (four fields randomly per well). […]

[8] = tested on: 1205Lu cells; test: Transendothelial migration on monolayers of TNFα-activated HUVECs; assay type: cell-based, human; settings: rhPTX3 100 ng.ml-1, 6 h
Description: as §2
(§3) Transwell inserts and treated with human TNFa (10 ng.ml-1) for 16 h. Melanoma cells were allowed to migrate for 6 h or 16 h and migrated cells were visualized and quantified as before. Pictures of five random fields were captured for quantification using NIH ImageJ analysis software. For scratch assays, melanoma cells were grown approximately 80% confluence in 6-well plates. Wounds were generated using a sterile 200 μl pipette tip across each well. Following treatment with rhPTX3 or CM, pictures of four random fields were captured using an imaging station and the number of migrated cells in wounded area was counted with NIH ImageJ analysis software.

[9] = tested on: SKMel28 cells; test: In vitro scratch assay; assay type: cell-based, human; settings: rhPTX3 added to wounded monolayers of PTX3-negative cells
Description: as §3

[10] = tested on: A375 cells; test: Serum-stimulated migration (modified Boyden chamber / Transwell); assay type: cell-based, human; settings: siPTX3-transfected cells, rhPTX3 100 ng.ml-1
Description: as §2, §3

[11] = tested on: 1205Lu cells; test: as above; assay type: cell-based, human
Description: as §2, §3

[12] = tested on: 1205Lu cells; test: Matrigel invasion assay; assay type: cell-based, human; settings: siPTX3-transfected cells, rhPTX3 100 ng.ml-1
Description: as §2, §3

Cc1ccc2nc(NCCN)c3ncc(C)n3c2c1 [BMS345541]
EMT factors levels [1]: reduced EMT factors levels | PTX3-mediated cell migration [2]: reduction of PTX3-mediated cell migration | autocrine production of PTX3 [3]: impaired the autocrine production of PTX3 | cell migration [4]: reduced | migration of control cells [5]: also reduced

shPTX3-5: lentiviral shRNA for stable knockdown of PTX3 (TRC1.5-pLKO.1-puro vector), SEQ ID NO: 1 (DNA CCGGGAGGAGCTCAGTATGTTTCATCTCGAGATGAAACATACTGAGCTCCTCTTTTTTG)
arrest of injected cells into the lungs (BLI) ([6]; 15 min after tail vein injection, vs shCTRL): equally arrested into the lungs | lung colonization (BLI) ([6]; during 15 days after tail vein injection, vs shCTRL): dramatic reduction in lung colonization | reduction in experimental lung metastasis (ex vivo BLI) ([6]; endpoint of the assay, stable PTX3 knockdown vs control cells): 6 fold | reduction of cell migration compared to shCtrl [7]: most efficient in reducing cell migration

recombinant PTX3: recombinant human PTX3 (Bio-Techne)
rescue of transendothelial migration of PTX3-depleted cells [8]: rescued | migration in wound area [9]: enhanced the migration | rescue of migration of PTX3-depleted cells [10]: rescued the migratory ability | rescue of migration by recombinant PTX3 in cells treated with a MYD88 inhibitory peptide ([11]; data not shown): failed to rescue migration | rescue of migration of PTX3-depleted cells ([11]; siPTX3-transfected cells, rhPTX3 100 ng.ml-1): rescued the migratory ability; also recorded: restored the migration | rescue of migration of TLR4 silenced cells ([11]; siTLR4-transfected cells stimulated with rhPTX3 for 4 h): ineffective to restore the migration | rescue of invasiveness of PTX3-depleted cells [12]: restored the impaired invasiveness
